In test [1] the target is T1, Fatty acid synthase (Homo sapiens, UniProt P49327). The experiment in a line: Inhibition of FASN in human SKBR3 cells. It counts as cell-based, SK-BR-3.
Test [2] deals with T1, Fatty acid synthase. In words: Reversible inhibition of human recombinant FASN ketoreductase site.
The target in test [3] is T1, Fatty acid synthase. The experiment in a line: Antagonist activity at human recombinant FASN thioesterase domain by fluorogenic assay. It counts as functional.
Test [4] has as its system MDA-MB-435. In words: Cytotoxicity against human MDA-MB-435 cells. It counts as functional, cell-based.
The subject of test [5] is MDA-MB-435. The experiment in a line: Selectivity ratio of IC50 for human MCF10A to IC50 for human MDA-MB-435 cells.
For a further test, the target named is Acetyl-CoA carboxylase 2 (Homo sapiens, UniProt O00763). In words: Inhibition of human ACC2 using acetyl coA as substrate and [14C]NaHCO3 incubated for 5 mins prior to substrate addition by liquid scintillation counting.
The target of the next test is Acetyl-CoA carboxylase 1 (Homo sapiens, UniProt Q13085). The experiment in a line: Inhibition of human ACC1 using acetyl coA as substrate and [14C]NaHCO3 incubated for 5 mins prior to substrate addition by liquid scintillation counting.
The target of test [6] is T1, Fatty acid synthase. The experiment in a line: Antagonist activity at recombinant FASN thioesterase domain by fluorogenic assay. The format is functional.
Test [7] deals with T2, ATP-citrate synthase (Rattus norvegicus, UniProt P16638).
T2 sequence (P16638 whole entry): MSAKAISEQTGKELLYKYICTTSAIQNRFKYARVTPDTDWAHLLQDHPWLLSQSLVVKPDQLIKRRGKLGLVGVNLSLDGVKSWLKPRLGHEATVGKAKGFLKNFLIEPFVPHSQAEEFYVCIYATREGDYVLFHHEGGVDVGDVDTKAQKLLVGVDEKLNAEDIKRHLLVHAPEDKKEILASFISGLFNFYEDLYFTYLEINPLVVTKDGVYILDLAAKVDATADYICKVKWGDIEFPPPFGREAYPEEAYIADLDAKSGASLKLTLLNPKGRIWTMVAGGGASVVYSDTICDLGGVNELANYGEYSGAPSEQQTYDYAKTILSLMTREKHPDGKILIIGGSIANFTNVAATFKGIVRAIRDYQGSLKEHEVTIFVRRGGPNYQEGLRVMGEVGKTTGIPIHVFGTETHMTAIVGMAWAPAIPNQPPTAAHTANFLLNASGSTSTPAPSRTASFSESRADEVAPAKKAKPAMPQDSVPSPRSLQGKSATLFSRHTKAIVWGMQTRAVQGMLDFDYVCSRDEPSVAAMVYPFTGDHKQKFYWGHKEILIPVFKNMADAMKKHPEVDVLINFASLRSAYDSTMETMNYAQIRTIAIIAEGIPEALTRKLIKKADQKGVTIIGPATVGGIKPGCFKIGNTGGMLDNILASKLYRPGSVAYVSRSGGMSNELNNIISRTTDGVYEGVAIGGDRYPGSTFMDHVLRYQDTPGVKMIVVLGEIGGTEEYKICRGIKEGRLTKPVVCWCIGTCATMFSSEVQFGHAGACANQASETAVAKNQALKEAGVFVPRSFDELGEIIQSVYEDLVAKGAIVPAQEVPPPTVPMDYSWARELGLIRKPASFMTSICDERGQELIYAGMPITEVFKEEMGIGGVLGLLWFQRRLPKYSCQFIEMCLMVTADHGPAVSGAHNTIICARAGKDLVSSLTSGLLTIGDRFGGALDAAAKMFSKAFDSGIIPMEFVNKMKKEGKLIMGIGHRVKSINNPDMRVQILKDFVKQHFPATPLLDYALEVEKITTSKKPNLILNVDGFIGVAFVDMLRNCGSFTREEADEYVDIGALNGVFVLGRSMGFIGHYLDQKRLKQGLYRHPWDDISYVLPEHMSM
The experiment in a line: Competitive inhibition of rat liver ACLY using CoA as substrate by spectrophotometric analysis.

Test [8] in a line: Inhibition of rat liver ACC.
Test [9] has as its target T2, ATP-citrate synthase. In words: Competitive inhibition of rat liver ACLY using citrate as substrate by spectrophotometric analysis.
Test [10] deals with T3, Fatty acid synthase (Gallus gallus, UniProt P12276). The experiment in a line: Inhibition of chicken liver FASN ketoreductase activity.
Test [11] addresses T3, Fatty acid synthase. In words: Inhibition of chicken liver FASN after 3 hrs.
The subject of the next test is BGC-823. In words: Cytotoxicity against human BGC823 cells. It counts as functional, cell-based.
Test [12] in a line: Inhibition of duck liver FASN. On the set-up: species or system Anas platyrhynchos.
The target of test [13] is T2, ATP-citrate synthase. The experiment in a line: Competitive inhibition of rat liver ACLY using ATP as substrate by spectrophotometric analysis.
A short description of test [14]: Inhibition of Ustilago maydis recombinant ACC expressed in Escherichia coli BL21(DE3) using acetyl coA as substrate and [14C]NaHCO3 incubated for 10 mins prior to substrate addition by liquid scintillation counting. On the set-up: species or system Mycosarcoma maydis.
Test [15] can be described thus: Inhibition of Escherichia coli FabB.
Test [16] addresses Fatty acid synthase (Rattus norvegicus, UniProt P12785). The experiment in a line: Inhibition of FASN in rat liver.
For test [17], the target named is T1, Fatty acid synthase. The experiment in a line: Inhibition of FASN in human HepG2 cells. The format is cell-based.
Test [18] in a line: Inhibition of acetyl coA carboxylase in human MCF7 cells. It counts as cell-based.

This is an account of results in ChEMBL document CHEMBL2163275, “The lipogenesis pathway as a cancer target” (J Med Chem, 2011).

T1 sequence (P49327 whole entry): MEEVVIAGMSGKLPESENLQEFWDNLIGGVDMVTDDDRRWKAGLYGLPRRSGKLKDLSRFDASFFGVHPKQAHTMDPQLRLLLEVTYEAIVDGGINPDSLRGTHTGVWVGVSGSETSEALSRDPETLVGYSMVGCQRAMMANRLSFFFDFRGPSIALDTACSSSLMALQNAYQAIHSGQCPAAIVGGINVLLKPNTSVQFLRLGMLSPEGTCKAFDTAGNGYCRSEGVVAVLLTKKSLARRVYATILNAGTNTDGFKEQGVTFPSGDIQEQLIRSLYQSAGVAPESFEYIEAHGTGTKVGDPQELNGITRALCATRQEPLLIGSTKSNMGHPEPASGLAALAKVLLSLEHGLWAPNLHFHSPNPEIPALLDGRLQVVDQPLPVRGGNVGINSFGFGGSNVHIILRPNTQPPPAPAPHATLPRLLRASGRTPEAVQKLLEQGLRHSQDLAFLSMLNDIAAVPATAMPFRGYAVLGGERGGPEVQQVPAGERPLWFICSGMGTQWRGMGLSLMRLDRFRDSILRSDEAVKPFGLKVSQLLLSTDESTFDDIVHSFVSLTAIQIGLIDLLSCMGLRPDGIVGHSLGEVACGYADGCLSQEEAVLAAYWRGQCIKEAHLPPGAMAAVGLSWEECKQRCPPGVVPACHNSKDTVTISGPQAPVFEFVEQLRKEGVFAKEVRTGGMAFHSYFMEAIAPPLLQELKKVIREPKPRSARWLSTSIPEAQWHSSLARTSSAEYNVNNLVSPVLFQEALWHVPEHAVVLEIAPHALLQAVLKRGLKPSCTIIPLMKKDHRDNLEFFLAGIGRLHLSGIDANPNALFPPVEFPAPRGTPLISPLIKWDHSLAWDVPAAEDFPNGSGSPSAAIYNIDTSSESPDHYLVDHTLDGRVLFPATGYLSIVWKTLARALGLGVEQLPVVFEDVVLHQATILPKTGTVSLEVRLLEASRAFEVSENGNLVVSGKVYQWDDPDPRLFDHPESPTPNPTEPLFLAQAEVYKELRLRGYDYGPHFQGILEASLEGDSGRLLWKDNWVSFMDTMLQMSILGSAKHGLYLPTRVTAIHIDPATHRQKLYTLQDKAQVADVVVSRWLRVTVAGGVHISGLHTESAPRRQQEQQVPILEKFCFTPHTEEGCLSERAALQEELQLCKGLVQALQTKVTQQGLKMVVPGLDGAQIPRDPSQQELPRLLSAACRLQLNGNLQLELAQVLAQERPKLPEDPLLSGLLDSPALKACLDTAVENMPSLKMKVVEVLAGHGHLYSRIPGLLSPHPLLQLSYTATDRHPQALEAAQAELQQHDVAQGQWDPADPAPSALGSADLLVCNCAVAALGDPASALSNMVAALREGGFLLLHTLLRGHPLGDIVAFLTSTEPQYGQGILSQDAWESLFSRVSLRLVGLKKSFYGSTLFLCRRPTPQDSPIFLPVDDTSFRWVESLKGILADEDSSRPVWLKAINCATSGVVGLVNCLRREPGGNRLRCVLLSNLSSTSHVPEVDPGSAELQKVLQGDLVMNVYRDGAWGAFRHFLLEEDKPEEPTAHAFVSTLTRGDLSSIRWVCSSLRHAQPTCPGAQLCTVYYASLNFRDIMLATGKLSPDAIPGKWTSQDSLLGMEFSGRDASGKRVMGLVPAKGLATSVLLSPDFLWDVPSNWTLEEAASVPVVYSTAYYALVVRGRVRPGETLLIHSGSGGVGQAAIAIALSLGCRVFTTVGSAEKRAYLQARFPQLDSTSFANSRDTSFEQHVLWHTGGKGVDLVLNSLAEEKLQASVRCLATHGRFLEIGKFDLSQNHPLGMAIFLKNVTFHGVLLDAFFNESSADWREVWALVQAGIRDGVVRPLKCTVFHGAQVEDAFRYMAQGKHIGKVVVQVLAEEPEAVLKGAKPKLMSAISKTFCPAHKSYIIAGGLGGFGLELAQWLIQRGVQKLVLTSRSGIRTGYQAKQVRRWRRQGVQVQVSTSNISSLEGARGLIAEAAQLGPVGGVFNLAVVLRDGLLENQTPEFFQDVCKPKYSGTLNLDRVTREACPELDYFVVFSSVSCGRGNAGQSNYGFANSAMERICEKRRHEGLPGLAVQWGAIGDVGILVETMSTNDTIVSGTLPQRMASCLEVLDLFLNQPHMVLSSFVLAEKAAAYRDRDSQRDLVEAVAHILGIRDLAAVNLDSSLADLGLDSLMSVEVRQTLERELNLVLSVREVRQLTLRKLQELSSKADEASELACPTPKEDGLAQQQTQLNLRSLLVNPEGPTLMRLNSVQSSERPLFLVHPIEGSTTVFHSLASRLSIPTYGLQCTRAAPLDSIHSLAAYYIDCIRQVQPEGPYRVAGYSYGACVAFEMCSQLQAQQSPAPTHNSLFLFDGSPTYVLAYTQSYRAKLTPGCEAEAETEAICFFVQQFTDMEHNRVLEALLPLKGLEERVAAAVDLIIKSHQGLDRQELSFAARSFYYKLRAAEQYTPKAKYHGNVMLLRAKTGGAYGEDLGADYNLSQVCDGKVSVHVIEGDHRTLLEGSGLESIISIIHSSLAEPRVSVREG
T3 sequence (P12276 whole entry): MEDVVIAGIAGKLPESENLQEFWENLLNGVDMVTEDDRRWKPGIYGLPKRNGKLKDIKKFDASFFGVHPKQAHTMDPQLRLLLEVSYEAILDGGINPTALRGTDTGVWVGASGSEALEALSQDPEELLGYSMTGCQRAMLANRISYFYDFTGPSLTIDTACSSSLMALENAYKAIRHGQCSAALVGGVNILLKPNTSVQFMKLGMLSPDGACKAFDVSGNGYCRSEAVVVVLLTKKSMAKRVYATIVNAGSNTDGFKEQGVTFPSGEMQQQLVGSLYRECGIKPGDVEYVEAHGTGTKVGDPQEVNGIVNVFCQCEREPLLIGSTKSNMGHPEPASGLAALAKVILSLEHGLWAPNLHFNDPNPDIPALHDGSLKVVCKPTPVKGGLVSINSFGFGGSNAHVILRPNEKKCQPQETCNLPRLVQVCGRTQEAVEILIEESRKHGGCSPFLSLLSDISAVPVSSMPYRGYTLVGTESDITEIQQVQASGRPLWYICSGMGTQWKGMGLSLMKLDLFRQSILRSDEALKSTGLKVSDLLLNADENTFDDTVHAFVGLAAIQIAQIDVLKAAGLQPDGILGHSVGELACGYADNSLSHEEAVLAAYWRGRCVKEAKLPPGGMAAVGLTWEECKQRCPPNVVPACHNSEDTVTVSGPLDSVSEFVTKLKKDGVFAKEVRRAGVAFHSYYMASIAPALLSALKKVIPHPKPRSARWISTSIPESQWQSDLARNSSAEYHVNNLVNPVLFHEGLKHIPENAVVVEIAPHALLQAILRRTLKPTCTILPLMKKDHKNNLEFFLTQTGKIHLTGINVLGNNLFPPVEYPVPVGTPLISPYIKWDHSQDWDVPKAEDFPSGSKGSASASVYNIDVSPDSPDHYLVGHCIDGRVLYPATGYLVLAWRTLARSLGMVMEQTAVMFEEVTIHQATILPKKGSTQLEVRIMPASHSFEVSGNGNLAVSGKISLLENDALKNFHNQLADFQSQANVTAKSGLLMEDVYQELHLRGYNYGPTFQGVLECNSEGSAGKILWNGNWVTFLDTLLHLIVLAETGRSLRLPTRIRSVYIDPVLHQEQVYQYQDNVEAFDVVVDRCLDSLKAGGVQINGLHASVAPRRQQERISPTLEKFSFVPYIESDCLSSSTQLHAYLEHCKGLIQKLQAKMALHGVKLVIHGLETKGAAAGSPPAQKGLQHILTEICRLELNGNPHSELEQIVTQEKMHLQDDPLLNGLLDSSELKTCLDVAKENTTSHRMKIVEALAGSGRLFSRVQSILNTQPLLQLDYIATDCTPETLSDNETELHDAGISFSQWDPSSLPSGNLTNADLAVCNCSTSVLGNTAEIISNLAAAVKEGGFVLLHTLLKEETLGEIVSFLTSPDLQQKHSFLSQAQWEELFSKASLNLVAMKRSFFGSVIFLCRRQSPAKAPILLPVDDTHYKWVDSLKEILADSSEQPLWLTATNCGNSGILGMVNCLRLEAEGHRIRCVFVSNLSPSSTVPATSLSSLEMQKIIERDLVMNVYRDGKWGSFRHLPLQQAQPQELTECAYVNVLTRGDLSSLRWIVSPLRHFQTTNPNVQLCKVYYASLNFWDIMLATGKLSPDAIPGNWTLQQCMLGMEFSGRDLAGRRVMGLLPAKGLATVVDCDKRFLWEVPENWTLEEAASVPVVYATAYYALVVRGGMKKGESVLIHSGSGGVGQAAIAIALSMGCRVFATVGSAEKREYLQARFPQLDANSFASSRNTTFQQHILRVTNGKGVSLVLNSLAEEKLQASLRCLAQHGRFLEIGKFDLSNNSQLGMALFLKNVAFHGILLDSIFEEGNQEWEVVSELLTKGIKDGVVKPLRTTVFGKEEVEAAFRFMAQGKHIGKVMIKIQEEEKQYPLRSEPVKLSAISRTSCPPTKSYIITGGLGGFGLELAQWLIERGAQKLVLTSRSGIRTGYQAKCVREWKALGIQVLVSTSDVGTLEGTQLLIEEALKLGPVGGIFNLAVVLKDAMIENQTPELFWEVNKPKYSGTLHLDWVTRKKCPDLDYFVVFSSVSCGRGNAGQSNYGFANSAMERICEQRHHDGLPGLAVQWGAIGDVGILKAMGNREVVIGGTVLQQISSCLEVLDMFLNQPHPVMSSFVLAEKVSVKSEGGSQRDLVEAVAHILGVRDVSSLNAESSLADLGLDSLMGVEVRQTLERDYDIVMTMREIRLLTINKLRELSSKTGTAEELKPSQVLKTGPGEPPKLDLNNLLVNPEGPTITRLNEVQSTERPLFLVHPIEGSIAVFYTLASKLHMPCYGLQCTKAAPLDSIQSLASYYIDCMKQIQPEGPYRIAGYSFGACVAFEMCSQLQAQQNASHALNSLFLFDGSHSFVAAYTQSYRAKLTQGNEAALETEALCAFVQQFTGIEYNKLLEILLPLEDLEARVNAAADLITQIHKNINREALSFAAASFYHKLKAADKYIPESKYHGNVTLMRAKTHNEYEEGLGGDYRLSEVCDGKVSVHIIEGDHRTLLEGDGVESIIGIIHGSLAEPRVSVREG

Take `CCCCC/C=C\C=C\CCCCCCCCC(=O)O`: it took 100 µM to reach half-maximal inhibition against Fatty acid synthase [1] (IC50).

`Cc1ccnc(NS(=O)(=O)c2ccc(NC(=O)Nc3ccc(S(=O)(=O)Nc4nccc(C)n4)cc3)cc2)n1`: the IC50 at Fatty acid synthase [2] is 0.0158 µM. Turning to `Cc1cc(C)cc(N2C(=O)NC(=O)/C(=C\c3ccc(-c4ccccc4)o3)C2=O)c1`, the Ki on Fatty acid synthase [3] worked out at 0.38 µM. This compound also gave an IC50 in the test on MDA-MB-435 [4] of 3.47 µM. For the same compound, the “Ratio IC50” value with MDA-MB-435 [5] was found to be 2. Consider `CC(C)Oc1ccc(C2=NC(CSc3nc4ncccc4o3)CO2)cc1` (configuration not stated), for which the IC50 against Acetyl-CoA carboxylase 2 is 2.8 µM; against Acetyl-CoA carboxylase 1, > 100 µM. In the case of `O=C1O[C@@H](CCc2ccccc2)[C@H]1Cc1ccccc1`, at Fatty acid synthase [6], the Ki is 2.5 µM. On to `CC(C)(CCCCCCCCCCC(C)(C)CC(=O)O)CC(=O)O`, for which the Ki at ATP-citrate synthase [7] was found to be 3 µM; in test [8], 70 µM; at ATP-citrate synthase [9], 16 µM.

`O=C(O[C@@H]1Cc2c(O)cc(O)cc2O[C@@H]1c1ccc(O)c(O)c1)c1cc(O)c(O)c(O)c1` [EPICATECHIN GALLATE]: the values for the IC50 on Fatty acid synthase [10] and against Fatty acid synthase [11] were 68 µM and 42 µM, respectively. For `O=C(O[C@H]1O[C@@H]2COc3c(c4cc(O)c(O)c(O)c4c4c(O)c(O)c(O)cc34)O[C@H]2[C@H](OC(=O)c2cc(O)c(O)c(O)c2)[C@H]1OC(=O)c1cc(O)c(O)c(O)c1)c1cc(O)c(O)c(Oc2c(C(=O)O[C@@H]3O[C@@H]4COC(=O)c5cc(O)c(O)c(O)c5-c5c(cc(O)c(O)c5O)C(=O)O[C@H]4[C@@H]4OC(=O)c5cc(O)c(O)c(O)c5-c5c(cc(O)c(O)c5O)C(=O)O[C@@H]34)cc(O)c(O)c2O)c1` [GEMIN A], the IC50 is 40.4 µM in the test with BGC-823 and 0.21 µM in test [12]. Take `C[C@@H]1C[C@H]2O[C@@H]2/C=C\C=C\C(=O)Cc2c(Cl)c(O)cc(O)c2C(=O)O1` [RADICICOL]: the Ki was found to be 13 µM on ATP-citrate synthase [9] and 7 µM at ATP-citrate synthase [13].

With `CO[C@H]1CCCC[C@@H](c2ccccc2)OC(=O)[C@@H](C)[C@@]2(O)O[C@H]([C@@H](C)[C@H](O)[C@H]2OC)[C@@H](C)/C=C/[C@H]1OC` [SORAPHEN A], the Ki in test [14] was 0.0021 µM. For `C=C/C(C)=C/[C@@]1(C)SC(=O)C(C)=C1O` [THIOLACTOMYCIN], the IC50 in test [15] is 1.9 µM; against Fatty acid synthase [16], > 951 µM; at Fatty acid synthase [17], > 380 µM.

`CCCCCCCCCCCCCCOc1ccc(C(=O)O)o1` [TOFA]: the half-inhibitory concentration (IC50) in test [18] was 12.3 µM.

One may read the IC50 as the midpoint of a concentration-inhibition curve. As usually defined, the Ki is the equilibrium dissociation constant of an inhibitor or competing ligand from its target.
